Experimental data as given in patent US20250375511A1 (priority 2024, published 2025).

Legend:
[1] = Binding of Fe^3+ to BCG: zeta potential (Zeta Sizer Ultra); type: physicochemical; conditions: in water, 0.04 mg/mL BCG, 100 uM Fe(NO3)3, measured immediately
Experimental: Zeta potential was measured immediately using a Zeta Sizer Ultra (Malvern).

[2] = system: T24 cells; type: cell-based, human
[3] = system: CT26.WT (mouse colon adenocarcinoma) tumors; set-up: species or system male BALB/C mice; conditions: in vivo

| Molecule | zeta potential [1] | cell kill [2] [%] | survival [3] | tumor growth [3] |
| --- | --- | --- | --- | --- |
| O=[N+]([O-])[O-].O=[N+]([O-])[O-].O=[N+]([O-])[O-].[Fe+3] [Fe^3+, Fe(NO3)3] | not detectable | 1.4 |  |  |
| Ru(4,4′-dimethyl-2,2′-bipyridine)2(2-(2′,2″:5″,2′″-terthiophene)-imidazo[4,5-f][1,10]phenanthroline) [RUVIDAR] |  |  | significantly increases survival, but the effect size is small | tumor growth suppression |
